Assay results reported in patent US4708954A, “Hypogylcemic oxaluric acid derivatives” (Nippon Zoki Pharmaceutical Co., Ltd., priority 1985, dated 1987).
Structures can show the parent of a compound that is named as a salt.

How the values were obtained:
[1] = system: Wistar-strain male rats; experiment: Hypoglycemic effect (blood glucose level in fasted, glucose-loaded rats); assay type: in vivo; settings: 100 mg/kg oral, 2 hours later; for Blood Glucose Level: fasted rats with s.c. 20% glucose 0.5 ml/100 g, control 139 ± 3; for inhibition in vivo at 100 mg/kg: Rattus norvegicus, decrease vs control (139 ± 3 mg/dl)
Method: Groups of 7 Wistar-strain male rats (weighing about 200 g) which were fasted for 20 hours were used for measurement of the hypoglycemic effect according to the modified method by Dulin et al. [Dulin, W. L. et al., Proc. Soc. Expl. Med., 107, 245 (1961)]. That is, 0.5 ml/100 g of 20% aqueous solution of glucose was subcutaneously administered to the backs of rats to prevent a decrease in blood glucose level because of the fasting. […] The obtained blood sample was allowed to stand for 30 minutes to complete the coagulation and was centrifuged to obtain the serum. Blood sugar level was measured according to the mutalotase GOD method [Trinder, Ann. Clin. Biochem., 6, 24 (1979)].

[2] = Acute toxicity test (oral, lethal dose by deaths over 7 days); settings: mouse, in vivo, suspended in 0.5% aqueous C.M.C., fasted 20 hours, deaths for 7 days
Method: The test compounds of the present invention suspended in 0.5% aqueous solution of carboxymethylcellulose (C.M.C.) were orally administered to groups of 4 to 6 ddY-strain male mice (weighing about 19 g) which had fasten for 20 hours. The lethal dose was determined by the number of deaths for 7 days thereafter.

Structure (SMILES): CCCCNC(=O)NS(=O)(=O)c1ccc(C)cc1 [Tolubutamide, reference compound]
- Blood Glucose Level [1]: 50 ± 1 mg/dL
- inhibition in vivo at 100 mg/kg [1]: 64%

Structure (SMILES): CNC(=O)NC(=O)C(=O)O [compound 1, 5-methyloxaluric acid ammonium salt]
- Blood Glucose Level [1]: 104 ± 7 mg/dL
- inhibition in vivo at 100 mg/kg [1]: 25.2%

Structure (SMILES): CCNC(=O)NC(=O)C(=O)O [compound 2, 5-ethyloxaluric acid ammonium salt]
- Blood Glucose Level [1]: 102 ± 4 mg/dL
- inhibition in vivo at 100 mg/kg [1]: 26.6%
- LD50 at 168 h [2]: 3000 to 4000 mg/kg

Structure (SMILES): CCCCNC(=O)NC(=O)C(=O)O [compound 3, 5-butyloxaluric acid]
- Blood Glucose Level [1]: 103 ± 5 mg/dL
- inhibition in vivo at 100 mg/kg [1]: 26%

Structure (SMILES): CCOC(=O)C(=O)NC(=O)NC [compound 12, 5-methyloxaluric acid ethyl ester]
- Blood Glucose Level [1]: 81 ± 5 mg/dL
- inhibition in vivo at 100 mg/kg [1]: 41.7%

Structure (SMILES): CCCCNC(=O)NC(=O)C(=O)OC [compound 13, 5-butyloxaluric acid methyl ester]
- Blood Glucose Level [1]: 88 ± 3 mg/dL
- inhibition in vivo at 100 mg/kg [1]: 36.7%
- LD50 at 168 h [2]: 1000 to 2000 mg/kg

Structure (SMILES): CCOC(=O)C(=O)NC(=O)NCC(C)C [compound 14, 5-iso-butyloxaluric acid ethyl ester]
- Blood Glucose Level [1]: 93 ± 2 mg/dL
- inhibition in vivo at 100 mg/kg [1]: 33.1%

Structure (SMILES): CCCCOC(=O)C(=O)NC(=O)NC [compound 20, 5-methyloxaluric acid butyl ester]
- Blood Glucose Level [1]: 101 ± 6 mg/dL
- inhibition in vivo at 100 mg/kg [1]: 27.3%
- LD50 at 168 h [2]: > 4000 mg/kg

Structure (SMILES): CNC(=O)NC(=O)C(=O)OCC(C)C [compound 21, 5-methyloxaluric acid iso-butyl ester]
- Blood Glucose Level [1]: 115 ± 4 mg/dL
- inhibition in vivo at 100 mg/kg [1]: 17.3%

Structure (SMILES): CCCCCCCCOC(=O)C(=O)NC(=O)NC [compound 22, 5-methyloxaluric acid octyl ester]
- Blood Glucose Level [1]: 122 ± 2 mg/dL
- inhibition in vivo at 100 mg/kg [1]: 12.2%
